Data: patent US10472393B2, “Method for inhibiting ADAM proteases with cyclic peptides” (Cancer Research Technology Limited, priority 2007, dated 2019)
*1 amine or outer side, *2 acyl side, *3 side chain or, on linkers, in order; H or OH if unused. Where a SMILES comes first, the peptide text is derived from it. Where no end group is shown, it is not given here. [ ]: non-standard residue; d: D form. isoSer(2S) = O=C([C@@H](O)CN[*:1])[*:2]

Columns and labels:
[1] = molecular target: T1, recombinant ADAM8 (Mus musculus, UniProt Q05910); test: Fluorescence assay of purified recombinant ADAM8 with fluorogenic CD23 peptide substrate; type: biochemical; settings: for inhibition of ADAM8 proteolytic activity: FIG. 1B, peptides at 100 nM
T1 sequence (Q05910 17-826): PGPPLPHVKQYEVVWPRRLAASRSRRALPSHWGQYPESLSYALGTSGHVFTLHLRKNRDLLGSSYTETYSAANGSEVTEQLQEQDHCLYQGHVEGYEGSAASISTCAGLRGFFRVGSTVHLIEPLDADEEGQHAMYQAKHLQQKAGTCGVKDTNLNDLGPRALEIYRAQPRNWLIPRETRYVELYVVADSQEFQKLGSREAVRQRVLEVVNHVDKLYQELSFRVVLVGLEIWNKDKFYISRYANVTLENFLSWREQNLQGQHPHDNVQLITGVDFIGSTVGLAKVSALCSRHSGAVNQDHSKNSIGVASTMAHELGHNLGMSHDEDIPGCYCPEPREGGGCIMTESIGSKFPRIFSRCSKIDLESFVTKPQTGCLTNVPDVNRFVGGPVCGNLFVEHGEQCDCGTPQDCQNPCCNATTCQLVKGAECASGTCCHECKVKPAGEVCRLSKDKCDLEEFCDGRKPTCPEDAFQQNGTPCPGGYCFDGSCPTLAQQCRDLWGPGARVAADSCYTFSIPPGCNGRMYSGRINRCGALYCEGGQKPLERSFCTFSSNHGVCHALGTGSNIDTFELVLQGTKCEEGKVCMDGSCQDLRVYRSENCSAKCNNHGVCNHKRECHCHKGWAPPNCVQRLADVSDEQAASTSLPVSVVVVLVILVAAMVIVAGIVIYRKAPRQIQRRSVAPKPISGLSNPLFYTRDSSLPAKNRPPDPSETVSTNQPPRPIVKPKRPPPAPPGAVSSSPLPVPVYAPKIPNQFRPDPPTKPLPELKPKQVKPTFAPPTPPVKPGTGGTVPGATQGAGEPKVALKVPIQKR
Experimental: In the following example, the ability of cyclic peptides to inhibit the activity of a recombinant ADAM8 was tested in fluorescence assays using a fluorogenic ADAM8 substrate (Moss and Rasmussen, 2007).
(§1) Activity of purified recombinant ADAM8 was assessed by using a fluorogenic CD23 peptide (Dabcyl-[…](5-FAM)-CONH2, SEQ ID NO:19) as a substrate. 50 ng substrate was incubated with 100 ng of ADAM8 in assay buffer (25 mM TrisHCl pH 7.5, 10 mM CaCl2, 150 mM NaCl) at 37° C. in the time range of 0 to 18 hours. Potential ADAM8 inhibitors were preincubated for 30 min before addition of the substrate. As a negative control, CD23 was incubated with assay buffer. For determination of ADAM10 activity, 100 ng of the recombinant ADAM10 protein (R&D systems) was used in conjunction with the fluorogenic substrate Dabcyl-LAQA(HomoPhe) RSC (Fluorescein)-NH2 (SEQ ID NO:55) in assay buffer (TrisHCl pH 9.0, 2.5 μM ZnCl2). For both assays the final volume in each well was 150 μl. Activity was measured as increase in fluorescence resulting from ADAM8/ADAM10 to cleave the quenched fluorescent substrates (λ excitation: 485 nm; λ emission: 520 nm) using a BMG Optima plate reader fluorometer.

[2] = molecular target: T2, recombinant ADAM10 (Homo sapiens, UniProt O14672); test: Fluorescence assay of recombinant ADAM10 with fluorogenic LAQA peptide substrate; type: biochemical; settings: FIG. 2, peptides at 100 nM
T2 construct: purchased R&D systems
T2 sequence (O14672 214-748): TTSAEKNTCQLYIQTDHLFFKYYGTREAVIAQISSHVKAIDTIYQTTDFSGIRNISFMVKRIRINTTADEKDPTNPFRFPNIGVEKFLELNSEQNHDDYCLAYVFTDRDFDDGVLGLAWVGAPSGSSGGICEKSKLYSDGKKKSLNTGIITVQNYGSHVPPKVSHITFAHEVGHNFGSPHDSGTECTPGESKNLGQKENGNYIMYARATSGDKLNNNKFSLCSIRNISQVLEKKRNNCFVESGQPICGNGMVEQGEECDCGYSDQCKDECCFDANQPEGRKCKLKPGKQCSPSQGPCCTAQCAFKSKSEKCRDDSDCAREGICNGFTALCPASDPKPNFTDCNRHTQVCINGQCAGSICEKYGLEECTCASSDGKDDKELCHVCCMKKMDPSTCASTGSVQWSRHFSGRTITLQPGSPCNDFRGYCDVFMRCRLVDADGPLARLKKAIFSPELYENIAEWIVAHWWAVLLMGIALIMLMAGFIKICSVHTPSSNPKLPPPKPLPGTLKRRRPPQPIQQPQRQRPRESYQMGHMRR
Experimental: as §1

[3] = molecular target: T3, ADAM8 DC domain (Mus musculus, UniProt Q05910); test: Adhesion of ADAM8-expressing cells to plates coated with recombinant ADAM8 DC domain; type: cell-based; settings: FIG. 8; concentration used in the range of 10 nM
T3 construct: recombinant ADAM8 disintegrin/cysteine-rich (DC) domain; Myc (C); His6 (C); made in house; host or cells: E. coli strain TOP10
T3 sequence (Q05910 402-643 limits assumed): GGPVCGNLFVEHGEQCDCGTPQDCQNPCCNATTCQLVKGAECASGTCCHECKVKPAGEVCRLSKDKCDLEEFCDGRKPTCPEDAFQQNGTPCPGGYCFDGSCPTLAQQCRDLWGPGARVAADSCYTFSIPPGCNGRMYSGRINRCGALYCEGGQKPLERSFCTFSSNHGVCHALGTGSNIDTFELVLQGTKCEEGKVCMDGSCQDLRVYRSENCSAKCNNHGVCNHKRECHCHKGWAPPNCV
Experimental: In this example, peptides synthesised as described in example 1 were used to target cell adhesion mediated by the ADAM8 DC domain. A recombinant DC domain of ADAM8 was expressed and purified from E. coli and then coated onto cell culture plates. Cells over-expressing ADAM8 were then allowed to bind to the ADAM8 DC domain on the plates.
96-well plates were coated with 50 μg/ml of recombinant ADAM8 DC protein in PBS at 4° C. for 16 h. To express the recombinant DC domain of ADAM8, the cDNA fragment encoding the A8 DC domain was generated by PCR using Platinum™ Pfx polymerase (Invitrogen) with the following primers: DCE-A8f, 5′-GGTGGCCCTGTGTGTGGAAAC-3′ (SEQ ID NO:17); DCE-A8r, 5′-TACACAGTTGGGTGGTGCCCA-3′ (SEQ ID NO:18). The resulting cDNA fragment was cloned into the bacterial expression vector pTrcHis2 (Invitrogen) containing a C-terminal Myc and His6 tag. This vector was transformed into E. coli strain TOP10 (Invitrogen). Recombinant protein expression was induced with 1 mM isopropyl-1-thio-D-galactopyranoside for 5 h to overnight. […]
After application of the recombinant protein and blocking with bovine serum albumin for 1 h, 10^5 cells in PBS or medium (with 5% FCS) were seeded onto the plates. […] After 1 h incubation at 37 C, the wells were rinsed 3× with PBS, and the remaining cells were quantified by counting 10 randomly chosen viewing fields (100-fold magnification). […]

[4] = test system: C6 glioma cells overexpressing ADAM8; test: Matrigel invasion assay, C6 glioma cells overexpressing ADAM8; type: cell-based, rat
Experimental: (§2) In this example, the ability of cyclic peptide to inhibit ADAM8 mediated tumour cell migration through an artificial extracellular matrix (Matrigel®) was measured in a cell invasion assay. Rat glioma C6 cells were stably transfected with full length ADAM8 cDNA [Schlomann et al, 2002]. Untransfected C6 glioma cells served as controls. 5×10^4 cells were suspended in 100 μl of culture medium in the absence or presence of peptides (100 nM) and loaded into Matrigel invasion chambers (BD Biosciences, Heidelberg, Germany), which were handled according to the supplier's manual. After 20 hours incubation time, invaded cells were fixed with methanol, stained with toluidine blue, and counted. Experiments were performed in triplets and from each well, 10 viewing fields were counted manually under the microscope. Differences between the values obtained were analysed using the Mann-Whitney U test.
(§3) ADAM8 was overexpressed by transfection in fibroblast (L929) and glioma (C6) cell lines which show no invasive potential under untransfected conditions. When ADAM8 expressing plasmids were transfected into these cell lines, the cells became highly invasive in Matrigel Invasion assays (e.g. as described in example 5). […] Invasion is also mediated by a soluble variant of ADAM8, which is released upon activation of ADAM8 in these cells.

[5] = test system: mouse fibroblast (L929) cells overexpressing ADAM8; test: Matrigel invasion assay, L929 fibroblast cells overexpressing ADAM8; type: cell-based; settings: FIG. 11; peptide 5 μM
Experimental: as §2, §3

[6] = test system: ADAM8; test: Specificity test, ADAM catalytic/disintegrin construct, CD23 fluorescent substrate; type: biochemical; settings: read-out: ADAM inhibition with P1, IC50, 10 mM CaCl2 in buffer
Experimental: (§4) The maximal concentration of the inhibitor peptide was 10 μM.
(§5) ADAM catalytic/disintegrin constructs were monitored at 5-min intervals using the indicated fluorescent substrates with excitation and emission wavelengths of 485 and 530 nm, respectively. The substrates were diluted from a 10 mM stock in DMSO to 10 μM in assay buffer containing 20 mM Tris, pH 8.0, and 6×10^−4% Brij-35. For experiments with ADAM8 only, 10 mM CaCl2 was added to the buffer. Reactions were run in a 96-well plate with either inhibitor (10 nM-10 μM) in 1% DMSO or a 1% DMSO control. Background wells contained substrate and 1% DMSO and were subtracted from all other wells. Endpoints were determined in wells containing substrate and an excess of ADAM17 for the TNF-alpha substrate and ADAM8 for the CD23 substrate. Concentrations of ADAM proteins were in the range of 2.0 nM for TACE, 10 nM for ADAM9, 5 nM for ADAM10, 10 nM for ADAM8, and 2 nM for ADAM12.

[7] = test system: ADAM9; test: Specificity test, ADAM catalytic/disintegrin construct, TNF peptide fluorescent substrate; type: biochemical; settings: maximal concentration 10 μM
Experimental: as §4, §5

[8] = test system: ADAM10; test: Specificity test, ADAM catalytic/disintegrin construct, LAQA fluorescent substrate; type: biochemical; settings: maximal concentration 10 μM
Experimental: as §4, §5

[9] = test system: ADAM12; test: as above; type: biochemical; settings: maximal concentration 10 μM
Experimental: as §4, §5

[10] = test system: ADAM17 (TACE); test: as above; type: biochemical; settings: maximal concentration 10 μM
Experimental: as §4, §5

[11] = test system: Mice (strain C57BL/6); test: Acute and chronic toxicity study in mice; type: in vivo, mouse
Experimental: To test for acute and for chronic toxicity, we used dosages of 1 μg, 5 μg, and 10 μg per gram of body weight in 100 μl of injection volume. Mice (strain C57BL/6) were either injected once (acute toxicity) or weekly three-times (chronic toxicity) intraperitoneal with the dosages indicated. All mice were analysed in cohorts of n=6, and NaCl injected mice were used as controls. […] We assessed spontaneous behaviour and motor performance of the mice. […] After 4 weeks, mice were sacrificed and representative organs were dissected and assessed histologically by normal hematoxylin/eosin (HE) staining. For each cohort of mice, one representative is documented for brain (cerebellum and cortex), liver, spleen, and kidney in FIG. 13.

Row | Molecule | IC50 ([1]; FIG. 1A, CD23 as substrate, read-out: IC50 for the inhibition of ADAM8) [nM] | inhibition of ADAM8 proteolytic activity ([1]; CD23 substrate) | concentration dependence of ADAM8 inhibition ([1]; FIG. 1C, 50-200 nM, CD23 substrate) | inhibition of ADAM10 [2] | inhibition of cell adhesion mediated by ADAM8 DC domain [3] | tumour cell invasion in ADAM8 expressing cells ([4]; FIG. 4, Example 5, 20 hours) | cell invasion, dose dependence ([4]; FIG. 10, Example 7) | ADAM-8 mediated cell invasion ([4]; FIG. 12, peptide 5 μM) | ADAM-8 mediated cell invasion [5] | IC50 [6] [nM] | ADAM inhibition with P1 [7] | ADAM inhibition with P1 [8] | ADAM inhibition with P1 [9] | ADAM inhibition with P1 [10] | spontaneous behaviour and motor performance ([11]; 1, 5, 10 μg per gram body weight i.p., once or weekly three-times, 4 weeks) | survival and obvious abnormalities ([11]; 1, 5, 10 μg per gram body weight i.p., once or weekly three-times, 4 weeks observation) | histology (HE staining) of brain, liver, spleen, kidney ([11]; FIG. 13, after 4 weeks)
1 | CNC(=O)[C@H](Cc1ccccc1)NC(=O)[C@H](CC(C)C)[C@H](CSc1cccs1)C(=O)NO [BB-94, batimastat, reference compound] | ~50 |  |  |  |  |  |  |  |  |  |  |  |  |  |  |  | 
2 | CC(C)C[C@@H]1NC(=O)[C@H](CCCNC(=N)N)NC(=O)[C@H](CCCCN)NC(=O)[C@H](CC(=O)O)NC(=O)[C@H](CCCCN)NC(=O)[C@@H](O)CNC1=O [Peptide P1, c(RLsKDK)] (cyclo(RL[isoSer(2S)]KDK)) |  | showed the most marked inhibition | concentration-dependant inhibition | little inhibition | very potent in the inhibition of cell adhesion | dramatically reduced tumour cell invasion | blocks cell invasion in a dose-dependent manner | significantly blocked | significantly blocked | 100 | No inh. at 10 μM | No inh. at 10 μM | No inh. at 10 μM | No inh. at 10 μM | not able to detect any differences in behaviour | all mice were alive and did not show any obvious abnormalities | did not show any evidence of toxicity
3 | H-RLSKDK-OH (not fully specified (bridges)) [Peptide P4] |  | little effect on ADAM8 activity |  |  |  |  |  |  |  |  |  |  |  |  |  |  | 
